From patent US6846801B1, “Systemic administration of a therapeutic preparation” (AstraZeneca AB, priority 1993, dated 2005)
Values belong to the molecule of their own block, whether it stands above or below them.

Columns and labels:
[1] = tested on: rats; assay: Rat model: powder inhaled, blood glucose compared with insulin formulations without enhancer; format: in vivo; details: for improvement in absorption of insulin: in vivo model; for Effect: key: +: significant decrease in blood glucose level; (+): moderate decrease in blood glucose level; −: no or very small decrease in blood glucose level
Protocol: Each of the compounds listed in Table III was tested for its ability to enhance uptake of insulin, and thus affect blood glucose levels, in a rat model. Various forms of insulin were employed: recombinant or semisynthetic human or bovine. Each formulation was prepared as above, drying and processing the insulin/enhancer or insulin/enhancer/lactose solution to produce an inhalable powder.
The powder was administered to rats by inhalation, and the blood glucose levels of the rats were subsequently monitored. These levels were compared to the corresponding values obtained from rats which had inhaled insulin formulations without enhancer.

[2] = tested on: CaCo-2 epithelial cell monolayer; assay: In vitro transport of insulin and markers across CaCo-2 epithelial cell monolayer; format: in vitro ADME; details: 60 min, 37° C.
Source text: A standard in vitro assay utilizing an epithelial cell line, CaCo-2 (available through the American Type Culture Collection (ATCC), Rockville, Md., USA), has been developed to assess the ability of various enhancer compounds to promote transport of insulin and other markers across an epithelial cell monolayer, as a model for the epithelial cell layer which functions in the lung to separate the alveolus from the pulmonary blood supply. In this assay, the enhancer and insulin or other marker are dissolved in aqueous solution at various proportions and/or concentrations, and applied to the apical side of the cell monolayer. After 60 min incubation at 37° C. and 95% RH (relative humidity), the amount of the marker on the basolateral side of the cells is determined: for example, by use of a radioactively labelled marker. […] This is true even when insulin is added to the enhancer/mannitol mixture (1:3 sodium caprate:insulin, by weight) (FIG. 9). This concentration of sodium caprate (16 mM) was also found to promote absorption of insulin across the cell monolayer. The amount of insulin which passed across the monolayer doubled in the presence of 16 mM sodium caprate, compared to the amount in the absence of any enhancer. […]

[3] = rats, inhaled powder, Enhancer:Insulin:lactose 2:4:94
[4] = rats, inhaled powder, Enhancer:Insulin:lactose 4:4:92
[5] = tested as enhancer in the method of the invention, animal (rat) model
[6] = rats, inhaled powder, Enhancer:Insulin:lactose 25:75:0

Molecule: CCCCCCCCCC(=O)OC[C@H](COP(=O)([O-])OCC[N+](C)(C)C)OC(=O)CCCCCCCCC [Didecanoylphospatidylcholine]
Effect ([1]; rats, inhaled powder, Enhancer:Insulin:lactose 4:4:94): −

Molecule: CCCCCCCC(=O)OCC(COP(=O)([O-])OCC[N+](C)(C)C)OC(=O)CCCCCCC (stereo not shown) [Dioctanoylphosphatidylcholine]
Effect [1, 3]: (+)

performance as enhancer of insulin absorption in the lung (in words) ([1]; rat, in vivo): some absorption enhancing properties
Molecule: CCCCCCCCOC1O[C@H](CO)[C@@H](O)[C@H](O)[C@H]1O (stereo partly shown) [Octylglucopyranoside]
Effect [1, 4]: (+)

Molecule: CCCCCCCCCC(=O)[O-].[K+] [Potassium caprate]
Effect ([1]; rats, inhaled powder, Enhancer:Insulin:lactose 27:73:0): + | performance as enhancer of insulin absorption in the lung (in words) [1, 5]: effective

Molecule: CCCCCCCC/C=C\CCCCCCCC(=O)[O-].[K+] [Potassium oleate]
Effect [1, 4]: +

Molecule: CCCCCCCCCC(=O)[O-].[Na+] [Sodium caprate]
amount of insulin which passed across the monolayer, compared to absence of any enhancer ([2]; 16 mM sodium caprate, apical to basolateral): doubled | amount of marker (mannitol) which appears on the basolateral side ([2]; at least up to 16 mM sodium caprate, FIG. 8): dependent upon the concentration of enhancer used | improvement in absorption of insulin ([1]; insulin/sodium caprate 50/50 w/w (50% sodium caprate)): Significant improvement | improvement in absorption of insulin ([1]; insulin/sodium caprate 75/25 w/w (25% sodium caprate)): Significant improvement | improvement in absorption of insulin ([1]; insulin/sodium caprate 82.5/17.5 w/w (17.5% sodium caprate)): intermediate | improvement in absorption of insulin ([1]; insulin/sodium caprate 90/10 w/w (10% sodium caprate)): poor improvement | Effect [1, 4]: + | Effect ([1]; rats, inhaled powder, Enhancer:Insulin:lactose 10:90:0): (+) | Effect ([1]; rats, inhaled powder, Enhancer:Insulin:lactose 17.5:82.5:0): (+) | Effect [1, 6]: + | performance as enhancer of insulin absorption in the lung (in words) [1, 5]: perform well

Molecule: CCCCCCCC(=O)[O-].[Na+] [Sodium caprylate]
Effect [1, 6]: −

Molecule: C[C@H](CCC(=O)NCC(=O)[O-])[C@H]1CC[C@H]2[C@@H]3[C@H](O)C[C@@H]4C[C@H](O)CC[C@]4(C)[C@H]3C[C@H](O)[C@]12C.[Na+] [Sodium glycocholate]
performance as enhancer of insulin absorption in the lung (in words) ([1]; rat, in vivo): effectively enhance insulin absorption in the lung | Effect [1, 4]: +

Molecule: CCCCCCCCCCCC(=O)[O-].[Na+] [Sodium laurate]
Effect [1, 6]: (+) | performance as enhancer of insulin absorption in the lung (in words) [1, 5]: perform well

performance as enhancer of insulin absorption in the lung (in words) [1, 5]: perform well
Molecule: CCCCCCCCCCCCCC(=O)[O-].[Na+] [Sodium myristate]
Effect ([1]; rats, inhaled powder, Enhancer:Insulin:lactose 30:70:0): +

Molecule: C[C@H](CCC(=O)NCCS(=O)(=O)O)[C@H]1CC[C@H]2[C@@H]3[C@H](O)C[C@@H]4C[C@H](O)CC[C@]4(C)[C@H]3C[C@H](O)[C@]12C [Sodium taurocholate]
Effect ([1]; rat, in vivo): + | performance as enhancer of insulin absorption in the lung (in words) ([1]; rat, in vivo): effectively enhance insulin absorption in the lung

Molecule: CC(=O)OC1CC2(C)C(CC(O)C3C4(C)CCC(O)C(C)C4CCC32C)C1=C(CCCC(C)C)C(=O)NCCS(=O)(=O)O (stereo not shown) [Sodium taurodihydrofusidate]
performance as enhancer of insulin absorption in the lung (in words) ([1]; rat, in vivo): effectively enhance insulin absorption in the lung | Effect [1, 3]: +

Molecule: C[C@H](CCC(=O)[O-])[C@H]1CC[C@H]2[C@@H]3[C@@H](O)C[C@@H]4C[C@H](O)CC[C@]4(C)[C@H]3CC[C@]12C.[Na+] [Sodium ursodeoxycholate]
performance as enhancer of insulin absorption in the lung (in words) ([1]; rat, in vivo): effectively enhance insulin absorption in the lung | Effect [1, 4]: +

performance as enhancer of insulin absorption in the lung (in words) ([1]; rat, in vivo): absorption enhancing effect
Molecule: Dimethyl-β-cyclodextrin
Effect ([1]; rats, inhaled powder, Enhancer:Insulin:lactose 75:25:0): +

Molecule: Lysine caprate
Effect ([1]; rats, inhaled powder, Enhancer:Insulin:lactose 35:65:0): + | performance as enhancer of insulin absorption in the lung (in words) [1, 5]: effective

Molecule: Lysophosphatidylcholine
Effect [1, 4]: + | performance as enhancer of insulin absorption in the lung (in words) [1, 5]: effective enhancer
